In publication PMC1660542, “Structure-based discovery of inhibitors of the YycG histidine kinase: New chemical leads to combat Staphylococcus epidermidis infections” (BMC Microbiology, 2006):
Converted amounts (≈) assume the structure as drawn. “Also recorded” adds a separate entry of the source. Like-named read-outs stand apart in the source and are kept apart here.

Tests used:
[1] = test system: S. epidermidis ATCC12228; test: MIC assay (broth dilution in tubes, CLSI); type: cell-based, Staphylococcus epidermidis; settings: Staphylococcus epidermidis
From the text: (§1) Staphylococcus epidermidis ATCC12228 and RP62A strains were purchased from the American Type Culture Collection (ATCC, Manassas, USA). Staphylococcus aureus ATCC29213, Escherichia coli ATCC25922 and Pseudomonas aeruginosa ATCC27853 were kindly provided by Dr. Bijie Hu at Zhongshan Hospital (Shanghai, China). S. epidermidis strains se527, se886, se847, seG203, Streptococcus pyogenes strain 144, and Streptococcus mutans strain 128 were all clinical isolates from Zhongshan Hospital and Huashan Hospital (Shanghai, China). If not stated otherwise, S. epidermidis and S. aureus strains were grown at 37°C in tryptic soy broth (TSB, Oxoid) containing 0.25% glucose, E. coli and P. aeruginosa strains were grown at 37°C in Luria-Bertani (LB, Oxoid).
(§2) MIC assays for the antibacterial activities of the compounds were performed according to the broth micro-dilution (in tubes) method of the Clinical and Laboratory Standards Institute (CLSI) of America. The Minimal Bactericidal Concentration (MBC) was obtained by subculturing 100 μl from each negative (no visible bacterial growth) tube from the MIC assay, onto substance-free Mueller-Hinton agar plates. The plates were incubated at 37°C for 24 hours, and the MBC was defined as the lowest concentration of substance which produced subcultures growing no more than five colonies on each plate.

[2] = test system: S. epidermidis RP62A; test: MIC assay (broth dilution in tubes, CLSI); type: cell-based; settings: Staphylococcus epidermidis
From the text: as §1, §2

[3] = test system: S. aureus ATCC29213; test: MIC assay (broth dilution in tubes, CLSI); type: cell-based, Staphylococcus aureus; settings: for MIC: Staphylococcus aureus, S. aureus ATCC29213, read-out: Minimal inhibitory concentration (MIC)
From the text: as §1, §2

[4] = test system: S. pyogenes 144; test: MIC assay (broth dilution in tubes, CLSI); type: cell-based, Streptococcus pyogenes; settings: for MIC: Streptococcus pyogenes, S. pyogenes 144, read-out: Minimal inhibitory concentration (MIC)
From the text: as §1, §2

[5] = test system: S. mutans 128; test: MIC assay (broth dilution in tubes, CLSI); type: cell-based, Streptococcus mutans; settings: for MIC: Streptococcus mutans, S. mutans 128, read-out: Minimal inhibitory concentration (MIC)
From the text: as §1, §2

[6] = test system: S. epidermidis ATCC12228; test: Minimal bactericidal concentration (MBC) assay; type: cell-based; settings: Staphylococcus epidermidis
Method: as §2

[7] = test system: S. epidermidis RP62A; test: Minimal bactericidal concentration (MBC) assay; type: cell-based; settings: Staphylococcus epidermidis
Method: as §2

[8] = biological target: T1, YycG' protein (Staphylococcus epidermidis, UniProt Q8CU87); test: Inhibition of YycG' ATPase activity / autophosphorylation (Kinase-Glo Luminescent Kinase Assay); type: biochemical; settings: 3 μM ATP; for IC50: 4 μg YycG' protein, read-out: IC50 for YycG'; for inhibition at 50 µM: compound 50 μM, 4 μg protein, read-out: Inhibition of YycG' phosphorylation (decrease of ATPase activity)
T1 construct: of YycG (370aa to 610aa) was amplified by PCR; His-tag (pET28a) (N); made in house; host or cells: E. coli BL21 (pET28a, pETYycG')
Method: The inhibitory activities of the compounds for the ATPase activity of the YycG' protein was measured using the Kinase-Glo™ Luminescent Kinase Assay (Promega, Madison, USA). Briefly, 4 μg YycG' protein was pre-incubated with a series of dilution of compounds in the reaction buffer (40 mM Tris [pH 7.5], 20 mM MgCl2, and 0.1 mg/ml BSA), at 25°C for 30 min. Then 3 μM ATP was added for another incubation of 30 min at 25°C, and Kinase-Glo™ Reagent was added to detect the rest amount of ATP, as recorded from luminescence measurements (RLU). In parallel, theYycG' protein with no addition of compounds was used as the control. The rate of inhibiting protein phosphorylation (Rp) by the compounds was calculated from equation 1:
Rp=RLU(YycG^′+compound+ATP+Reagent)−RLU(YycG^′+ATP+Reagent)/RLU(ATP+Reagent)−RLU(YycG^′+ATP+Reagent)×100% (1) MathType@MTEF@5@5@+=feaafiart1ev1aaatCvAUfKttLearuWrP9MDH5MBPbIqV92AaeXatLxBI9gBaebbnrfifHhDYfgasaacH8akY=wiFfYdH8Gipec8Eeeu0xXdbba9frFj0=OqFfea0dXdd9vqai=hGuQ8kuc9pgc9s8qqaq=dirpe0xb9q8qiLsFr0=vr0=vr0dc8meaabaqaciaacaGaaeqabaqabeGadaaakeaacqqGsbGudaWgaaWcbaGaeeiCaahabeaakiabg2da9maalaaabaGaeeOuaiLaeeitaWKaeeyvauLaeiikaGIaeeywaKLaeeyEaKNaee4yamMafe4raCKbauaacqGHRaWkcqqGJbWycqqGVbWBcqqGTbqBcqqGWbaCcqqGVbWBcqqG1bqDcqqGUbGBcqqGKbazcqGHRaWkcqqGbbqqcqqGubavcqqGqbaucqGHRaWkcqqGsbGucqqGLbqzcqqGHbqycqqGNbWzcqqGLbqzcqqGUbGBcqqG0baDcqGGPaqkcqGHsislcqqGsbGucqqGmbatcqqGvbqvcqGGOaakcqqGzbqwcqqG5bqEcqqGJbWycuqGhbWrgaqbaiabgUcaRiabbgeabjabbsfaujabbcfaqjabgUcaRiabbkfasjabbwgaLjabbggaHjabbEgaNjabbwgaLjabb6gaUjabbsha0jabcMcaPaqaaiabbkfasjabbYeamjabbwfavjabcIcaOiabbgeabjabbsfaujabbcfaqjabgUcaRiabbkfasjabbwgaLjabbggaHjabbEgaNjabbwgaLjabb6gaUjabbsha0jabcMcaPiabgkHiTiabbkfasjabbYeamjabbwfavjabcIcaOiabbMfazjabbMha5jabbogaJjqbbEeahzaafaGaey4kaSIaeeyqaeKaeeivaqLaeeiuaaLaey4kaSIaeeOuaiLaeeyzauMaeeyyaeMaee4zaCMaeeyzauMaeeOBa4MaeeiDaqNaeiykaKcaaiabgEna0kabigdaXiabicdaWiabicdaWiabcwcaLiaaxMaacaWLjaWaaeWaaeaacqaIXaqmaiaawIcacaGLPaaaaaa@A46C@
IC50 (the concentration of inhibition of 50% YycG' protein autophosphorylation) was obtained by using the Origin v7.0 software (OriginLab, Northampton, USA).

[9] = test system: SrrB'; test: Inhibition of SrrB' autophosphorylation (Kinase-Glo); type: biochemical, S. epidermidis; settings: compound 50 μM, 4 μg protein, 3 μM ATP
[10] = Cytotoxicity on Vero cell (MTT, Cell Proliferation Kit I); type: cell-based, African Green-monkey; settings: African green monkey, Vero cells, highest concentration tested 200 μM
Method: (§3) Cytotoxicity of the antibacterial compounds on cultured Vero cell was measured by using the Cell Proliferation Kit I (MTT) (Roche, Indianapolis, USA) according to the manufacturer's protocol. Addition of DMSO (1%) in the medium produced a slight cytotoxicity on Vero cell, which could easily be corrected for. Each assay was performed in quadruplicate and repeated three times. The results were converted to percentage of the control (cells only treated with 1% DMSO) and CC50 (concentrations that produce a 50% cytotoxicity effect on Vero cell) was calculated by the Origin v7.0 software (OriginLab, Northampton, USA). Hemolytic activities of the compounds were determined by using healthy human erythrocytes. The erythrocytes were washed three times in sterile saline and resuspended to 5% prior to the assay. […] Cells without compound treatment and cells with 1% Triton-100 treatment were used as 0% and 100% hemolysis controls, respectively. The cell suspensions were incubated for 1 hour at 37°C and centrifuged at 1000×g for 10 min. Volumes of 100 μl supernatants were transferred to another sterile plate and hemoglobin release from the cells was determined at 570 nm. […] The hemolysis assays were repeated twice.

[11] = Erythrocyte hemolysis assay; type: cell-based, human; settings: human, erythrocytes (5% suspension), 1 hour, 37°C;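 further: compounds tested at their MIC and at 4× MIC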
Method: as §3

[12] = test system: S. epidermidis RP62A mature biofilm cells; test: Killing biofilm cells of S. epidermidis (CFU count); type: cell-based, Staphylococcus epidermidis
Method: An overnight culture of S. epidermidis strain RP62A was diluted 1:100 in TSB containing 0.25% glucose, then 1 ml bacterial suspension was inoculated into the wells of sterile 12-well polystyrene microtiter plates (Falcon) incubated at 37°C for 24 h. The plates with mature biofilm were washed gently four times with sterile PBS before adding fresh TSB containing the various compounds at their MBC values, and incubated at 37°C for 24 h. The plates were washed again four times with sterile PBS, then the biofilm cells were scraped from the plate and resuspended in 1 ml PBS, and violently vortexed to disintegrate clumps of cells. Next, the suspension was diluted gradually with sterile PBS and subcultured onto substance-free Mueller-Hinton agar plates, incubated at 37°C for 24 h, and the colonies were counted. The fresh medium containing vancomycin at the MBC value and substance-free fresh medium served as the controls. The experiment was repeated three times.

[13] = ATCC12228, Table 2, as tested on S. epidermidis ATCC 12228, read-out: MICs
[14] = S. epidermidis ATCC12228 (non-biofilm-forming strain), read-out: Minimal inhibitory concentration (MIC)
[15] = S. epidermidis RP62A (biofilm-forming strain), read-out: Minimal inhibitory concentration (MIC)
[16] = S. epidermidis RP62A, read-out: Minimal bactericidal concentration (MBC)
[17] = at 4 × MIC (number in parenthesis)
[18] = at MIC for S. epidermidis ATCC12228

T1 sequence (Q8CU87 370-610): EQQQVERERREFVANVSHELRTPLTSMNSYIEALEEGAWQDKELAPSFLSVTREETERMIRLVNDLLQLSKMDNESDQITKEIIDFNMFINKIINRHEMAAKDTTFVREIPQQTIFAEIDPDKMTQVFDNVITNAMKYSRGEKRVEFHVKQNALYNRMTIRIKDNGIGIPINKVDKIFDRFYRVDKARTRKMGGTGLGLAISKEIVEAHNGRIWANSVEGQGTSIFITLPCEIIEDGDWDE

SMILES	MIC [1, 13] [µM]	MIC [1, 14] [µM]	MIC [2, 15] [µM]	Inhibitory effect against S. aureus [3]	MIC [3] [µM]	Inhibitory effect against Streptococcus pyogenes [4]	MIC [4] [µM]	MIC [5] [µM]	MBC [6] [µM]	MBC [7, 16] [µM]	IC50 [8] [µM]	inhibition at 50 µM [8] [%]	Inhibition of SrrB' phosphorylation [9] [%]	CC50 [10] [µM]	hemolysis at 1 h [11, 17] [%]	hemolysis at 1 h [11, 18] [%]	also measured
O=C(NNC(=O)c1c(Br)c(Br)c(Br)c(Br)c1C(O)O)c1cc(Cl)ccc1O [Compound 1]	50	50	50	inhibited the growth	50 (≈ 32.6 µg/mL)	inhibited the growth	200 (≈ 130 µg/mL)	> 200	200 (≈ 130 µg/mL)	200	48	52	3	> 200	< 0.1	< 0.1	–
Cc1ccc(C(O)O)cc1-c1ccc(/C=N/NC(=O)c2cc3c(ccc4ccccc43)o2)o1 [Compound 4]	12.5	12.5	12.5	–	> 200	only active against S. pyogenes	50 (≈ 22 µg/mL)	> 200	50 (≈ 22 µg/mL)	100	13.5	76	3	> 200	0.4	0.1	–
CCOC(=O)C1=C(c2ccccc2)N=c2s/c(=C/c3ccc(-c4cccc(C(O)O)c4)o3)c(=O)n2C1c1ccc2c(c1)OCO2 (stereo not shown) [Compound 5]	6.25	6.25	6.25	effective	6.25 (≈ 3.89 µg/mL)	effective	1.56 (≈ 0.971 µg/mL)	6.25 (≈ 3.89 µg/mL)	25 (≈ 15.6 µg/mL)	25	14	73	–	> 200	0.3	0.1	Inhibitory effect against Streptococcus mutans [5]: effective; Reduction of the CFU of the biofilm cells ([12]; 24-hour-old biofilm, at MBC value, relative to untreated control): more than 100 fold
CN(C)[C@@H]1C(O)=C(C(N)=O)C(=O)[C@@]2(O)C(O)=C3C(=O)c4c(O)cccc4[C@@](C)(O)[C@H]3C[C@@H]12 [Tet, tetracycline, reference compound]	–	–	–	–	–	–	–	–	–	–	–	–	–	–	–	–	MIC ([1]; ATCC12228, conventional antibiotics used in the hemolysis assay, strain not printed at the place, read-out: MIC): 0.25 µg/mL
CN[C@H](CC(C)C)C(=O)N[C@H]1C(=O)N[C@@H](CC(N)=O)C(=O)N[C@H]2C(=O)N[C@H]3C(=O)N[C@H](C(=O)N[C@H](C(=O)O)c4cc(O)cc(O)c4-c4cc3ccc4O)[C@H](O)c3ccc(c(Cl)c3)Oc3cc2cc(c3O[C@@H]2O[C@H](CO)[C@@H](O)[C@H](O)[C@H]2O[C@H]2C[C@](C)(N)[C@H](O)[C@H](C)O2)Oc2ccc(cc2Cl)[C@H]1O [Vancomycin, reference compound]	–	–	–	–	–	–	–	–	–	–	–	–	–	–	–	–	MIC ([2]; RP62A): 1 µg/mL; MBC ([7]; RP62A): 4 µg/mL; Killing of biofilm cells ([12]; concentration increased up to 128 μg/ml): no increased killing; also recorded: almost without effect
